Results on one compound are retold here after patent publication US9474757B2, “Methods for treating cancer using TOR kinase inhibitor combination therapy” (Signal Pharmaceuticals, LLC, priority 2013, dated 2016).

Data set [1] has as its system WSU-DLCL2 xenograft. Nature of the data set: DLBCL xenograft model (WSU-DLCL2). The class given is in vivo, SCID mice. The note with it: combination study. The protocol:
Severe combined immunodeficiency (SCID) mice were implanted with human DLBCL cell line (WSU-DLCL2) into the flank. Treatment of compounds started between Day 11 and Day 14 after cell inoculation. Randomized groups of mice (n=9 to 10/group) were treated with the single agents (Compound 1, Compound A or Compound AA) or the combination of Compound 1/Compound A, Compound A/Compound AA, or Compound 1/Compound AA. Compounds were administered orally on a once daily (Compound 1 and Compound A) or twice daily […] schedule for 21 days. The positive control consisted of CHOP therapy (combination of cyclophosphamide, doxorubicin, vincristine and prednisone). Compound 1 and Compound A were formulated in CMC-Tween (carboxymethylcellulose/Tween 80/deionized water). Compound AA was suspended in DSP (dimethylsulphoxide/solutol/phosphate buffered saline).
Initial studies were conducted in order to determine the antitumor activity of Compound 1 and to identify a dose level for the combination studies. In the WSU-DLCL2 xenograft model, Compound 1 inhibited tumor growth in a dose-dependent fashion. […] In a subsequent combination study, Compound 1 was dosed at 10 mg/kg, once daily (QD). Compound A and Compound AA were dosed at 30 mg/kg (QD) and 50 mg/kg (BID), respectively.

Data set [2] has as its system SUDHL4 (DLBCL) xenografts. Kind of data set: CIVO arrayed microinjection, SUDHL4 xenograft, cleaved caspase 3. It is filed as in vivo, Nu/Nu mice. The note with it: systemic Compound A 30 mpk QD×8 -/+ dexamethasone 5 mpk, local Compound 2 13 μg in 4 μL. The protocol:
(§1) Anesthetized Nu/Nu mice harboring xenografted tumors were injected with multiple individual compounds or compound combinations, simultaneously, each into a distinct location of the tumor. Precise, controlled delivery of the compounds was evaluated for spatially defined and cellular changes around sites of tumor microinjection across xenograft models of DLBCL. Tumors were resected and injection quality was assessed by IVIS imaging of co-injected near-infrared tracking dye. Sections from representative regions down the z-axis of the tumor were prepared for staining with biomarkers of pathway inhibition and tumor response. Samples were then batch scanned in a Caliper Pannoramic slide scanner, resulting in high resolution images compatible with single cell analysis and subsequent data quantification via Presage's CIVO™ analyzer custom image analysis platform (for technology description, see R. Klinghoffer et al, AACR, 2014 and Presagebio.com).
In order to evaluate combination effects of Compound A with other compounds in the DLBCL model SUDHL4, vehicle or Compound A (30 mpk QD×8)−/+ dexamethasone (5 mpk QD×8) was given systemically. […] Apoptosis was evaluated by measurement of the apoptosis marker, cleaved caspase 3 (CC3), which was plotted as a function of distance from the injection site.

For data set [3], the system named is OCI-Ly10 xenograft. Kind of data set: OCI-Ly10 DLBCL xenograft model. It is filed as in vivo, SCID mice. An excerpt: OCI-Ly10 cells are derived from a diffuse-large B-cell lymphoma, a type of non-Hodgkins lymphoma. Female SCID mice (Fox Chase SCID®, CB 17/Icr-Prkdcscid, Charles River), characterized by severe combined T and B cell immunodeficiency, were 10 weeks old, with body weights ranging from 15.4 to 24.2 g, on Day 1 of this study. In brief, female CB.17 SCID mice were inoculated with 5×10^6 OCI-Ly10 cells subcutaneously, and tumors were allowed to grow to approximately 100-150 mm^3 before stratification into treatment groups, so as to yield groups with comparably sized tumors prior to treatment. In addition to the efficacy treatment groups, some mice were stratified into short-term treatment groups and their tumors were collected 4 hours post final dosing in groups that received saline, 30 mg/kg or 10 mg/kg Compound A, or 3 mg/kg Compound 1 once daily for seven days, starting on day 27. Frozen, and fixed paraffin-embedded, samples were analyzed. In the efficacy arm of the study, dosing began on Day 1 (D1) in 12 groups of mice (n=10/group) with established subcutaneous tumors (mean volumes, 120-129 mm^3). Compound A (at two dose levels) and Compound 1 (at one dose level) were each administered once daily for 28 days (qd×28). Control mice received the vehicle, 5% DMSO/15% Solutol® HS15/80% PBS, p.o. b.i.d.×28. On D29 a 21-day dosing extension, from day 33 to day 53, in the control and five test groups was implemented, resulting in b.i.d.×28/4/21 or qd×28/4/21 schedules for these groups.
Tumors were calipered twice weekly, and each mouse in the efficacy study was euthanized when its tumor reached the 1000 mm^3 volume endpoint, or on day 61, whichever came first. Efficacy was determined from tumor growth delay (TGD), defined as the increase in the median time-to-endpoint (TTE) in drug-treated (T) versus vehicle-treated (C) mice, and from the significance of survival extension.

Data set [4] concerns OCILy10 xenografts. Kind of data set: CIVO arrayed microinjection, OCILy10 xenograft, cleaved caspase 3. The class given is in vivo, Nu/Nu mice. How it is done:
as §1
In order to evaluate combination treatment with Compound 1, Compound A and Compound AA, mice with OCILy10 xenografts were treated systemically with Compound A 30 mpk QD×4 followed by Compound A 30 mpk and Compound 110 mpk QD×3. At 3 hours after the 7th systemic dose, Compound AA (15.4 μg in 4 μL injected) was injected locally at three sites. […]

Setting [5] is: 28-day schedule: Compound A 30 mg/kg qd×28, alone or with Compound 1.
[6] abbreviates: extended schedule qd×28/4/21: Compound A 10 mg/kg, Compound 1 3 mg/kg, alone or combined.

Turning to `Cc1nc2cccc(N)c2c(=O)n1C1CCC(=O)NC1=O` (centres unmarked) [Compound A, 3-(5-Amino-2-methyl-4-oxoquinazolin-3(4H)-yl)-piperidine-2,6-dione], in data set [1] (Day 34, Compound 1 10 mg/kg QD, Compound A 30 mg/kg QD, Compound AA 50 mg/kg BID, oral), the “decrease in tumor volume (TVR) vs vehicle” value is given as 30%. For the same compound, the body weight loss result in data set [1] (single agents or in combination) is reported as “No significant body weight loss”. Moreover, in data set [2], the “apoptosis (cleaved caspase 3) induced by local treatment with Compound 2” value is given as “enhanced induction of apoptosis”. Also, the “apoptosis (cleaved caspase 3) induced by local treatment with Compound 2” value in data set [2] (listed as compound A) is “enhanced cell death”. Further, the “tumor growth delay (TGD), %” value in data set [3] (28-day schedule: Compound A 30 mg/kg qd×28) turned out to be 88%. Besides, in data set [3] (setting [5]), the PRs entry is given as “two”, the “survivors (n=10/group)” value was “seven” and the “tumor growth delay (TGD)” value was 28.6 days. Moreover, in data set [3] (extended schedule qd×28/4/21: Compound A 10 mg/kg, Compound 1 3 mg/kg), the “tumor growth delay (TGD), %” value turned out to be 27%. In addition, in data set [3] (setting [6]), the PRs / regressions result is recorded as “no regressions”, the “survivors (n=10/group)” value is on record as “three” and the “tumor growth delay (TGD)” value came out at 8.9 days. Moreover, in data set [4] (systemic Compound A 30 mpk, with or without Compound 1 10 mpk, local Compound AA), the “cell death (CC3 positive sites) at Compound AA injection sites” value was “did not lead to cell death”. Also, in data set [4] (systemic dose, local injection of Compound AA 15.4 μg in 4 μL, total sites 18 and 26), the CC3 positive sites is reported as 0.
